From publication PMC9291647, “Discovery of novel mRNA demethylase FTO inhibitors against esophageal cancer” (Journal of Enzyme Inhibition and Medicinal Chemistry, 2022)

Molecular target: fat mass and obesity-associated protein (FTO) (Homo sapiens, UniProt Q9C0B1)
Experiment: FTO demethylase assay with ssRNA substrate, nucleosides detected by LC/MS
Type: biochemical

Sequence of fat mass and obesity-associated protein (FTO) (Q9C0B1 whole entry): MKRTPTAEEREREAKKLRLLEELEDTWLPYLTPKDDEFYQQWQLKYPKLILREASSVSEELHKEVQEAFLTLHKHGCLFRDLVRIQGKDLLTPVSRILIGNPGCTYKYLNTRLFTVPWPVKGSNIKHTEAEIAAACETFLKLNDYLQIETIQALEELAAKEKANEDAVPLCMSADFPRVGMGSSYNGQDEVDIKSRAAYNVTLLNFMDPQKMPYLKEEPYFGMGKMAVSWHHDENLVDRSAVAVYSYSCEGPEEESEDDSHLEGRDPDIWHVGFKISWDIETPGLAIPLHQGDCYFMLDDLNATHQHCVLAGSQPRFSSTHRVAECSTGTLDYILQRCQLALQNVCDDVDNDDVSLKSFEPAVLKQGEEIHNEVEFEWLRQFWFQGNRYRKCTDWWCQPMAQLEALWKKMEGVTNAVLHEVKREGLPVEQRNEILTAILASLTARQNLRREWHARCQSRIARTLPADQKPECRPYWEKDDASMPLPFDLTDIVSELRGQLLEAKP

IC50 [µM]	SMILES
8.67	O=C(NCc1cn(Cc2nc3ccccc3[nH]2)nn1)c1c(F)c(F)c(F)c(F)c1F [C8, N-((1-((1H-benzo[d]imidazol-2-yl)methyl)-1H-1,2,3-triazol-4-yl)methyl)-2,3,4,5,6-pentafluorobenzamide]
0.78	COc1c(C)cnc(Cn2cc(CNC(=O)c3c(F)c(F)c(F)c(F)c3F)nn2)c1C [C6, 2,3,4,5,6-Pentafluoro-N-((1-((4-methoxy-3,5-dimethylpyridin-2-yl)methyl)-1H-1,2,3-triazol-4-yl)methyl)benzamide]
